Measured values from US9149038B2, “4-amino-6-(heterocyclic)picolinates and 6-amino-2-(heterocyclic)pyrimidine-4-carboxylates and their use as herbicides” (Dow AgroSciences LLC, priority 2013, dated 2015).
Read-outs that look alike come from different tables or passages of the source.

What was measured:
[1] = tested on: Key Grass and Sedge Weeds as well as Grass Crops; experiment: Post-Emergent Test II: postemergent herbicidal activity, visual rating after 14 d (Table 8); type: in vivo; settings: post-emergence, 336 h; for pest or weed control at 35 g/ha: 35 g ai/ha; for pest or weed control at 70 g/ha: 70 g ai/ha; for pest or weed control at 140 g/ha: 140 g ai/ha
Outline: (§1)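 Scoring is visual, 0-100, at 14 d after application, comparing treated with untreated plants. Application: overhead track spray at 187 L/ha onto seedlings at 1-2 true leaves, in surfactant/crop-oil carrier.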

[2] = tested on: Key Broadleaf Weed and Crop Species; experiment: Post-Emergent Test II: postemergent herbicidal activity, visual rating after 14 d (Table 7); type: in vivo; settings: post-emergence, 336 h; for pest or weed control at 35 g/ha: 35 g ai/ha; for pest or weed control at 70 g/ha: 70 g ai/ha; for pest or weed control at 140 g/ha: 140 g ai/ha
Outline: as §1

[3] = barnyardgrass (Echinochloa crus-galli), read-out: Visual Growth Reduction (%) 14 Days After Application, ECHCG
[4] = giant foxtail (Setaria faberi), read-out: Visual Growth Reduction (%) 14 Days After Application, SETFA
[5] = maize, corn (Zea mays), read-out: Visual Growth Reduction (%) 14 Days After Application, ZEAMX
[6] = rice (Oryza sativa), read-out: Visual Growth Reduction (%) 14 Days After Application, ORYSA
[7] = wheat, spring (Triticum aestivum), read-out: Visual Growth Reduction (%) 14 Days After Application, TRZAS
[8] = yellow nutsedge (Cyperus esculentus), read-out: Visual Growth Reduction (%) 14 Days After Application, CYPES
[9] = ABUTH: velvetleaf (Abutilon theophrasti), read-out: Visual Growth Reduction (%) 14 Days After Application ABUTH
[10] = AMARE: redroot pigweed (Amaranthus retroflexus), read-out: Visual Growth Reduction (%) 14 Days After Application AMARE
[11] = BRSNN: oilseed rape, canola (Brassica napus), read-out: Visual Growth Reduction (%) 14 Days After Application BRSNN
[12] = CHEAL: lambsquarters (Chenopodium album), read-out: Visual Growth Reduction (%) 14 Days After Application CHEAL
[13] = EPHHL: wild poinsettia (Euphorbia heterophylla), read-out: Visual Growth Reduction (%) 14 Days After Application EPHHL
[14] = HELAN: sunflower (Helianthus annuus), read-out: Visual Growth Reduction (%) 14 Days After Application HELAN

Structure (SMILES)	pest or weed control at 35 g/ha [1, 3] [%]	pest or weed control at 70 g/ha [1, 3] [%]	pest or weed control at 140 g/ha [1, 3] [%]	pest or weed control at 35 g/ha [1, 4] [%]	pest or weed control at 70 g/ha [1, 4] [%]	pest or weed control at 140 g/ha [1, 4] [%]	pest or weed control at 35 g/ha [1, 5] [%]	pest or weed control at 70 g/ha [1, 5] [%]	pest or weed control at 140 g/ha [1, 5] [%]	pest or weed control at 35 g/ha [1, 6] [%]	pest or weed control at 70 g/ha [1, 6] [%]	pest or weed control at 140 g/ha [1, 6] [%]	pest or weed control at 35 g/ha [1, 7] [%]	pest or weed control at 70 g/ha [1, 7] [%]	pest or weed control at 140 g/ha [1, 7] [%]	pest or weed control at 35 g/ha [1, 8] [%]	pest or weed control at 70 g/ha [1, 8] [%]	pest or weed control at 140 g/ha [1, 8] [%]	pest or weed control at 35 g/ha [2, 9] [%]	pest or weed control at 70 g/ha [2, 9] [%]	further results
Nc1cc(-c2c(F)ccc3c2OC(F)(F)O3)nc(C(=O)O)c1Cl [Compound 91]	0 to 29	0 to 29	0 to 29	0 to 29	0 to 29	0 to 29	0 to 29	0 to 29	0 to 29	0 to 29	0 to 29	0 to 29	0 to 29	0 to 29	0 to 29	0 to 29	0 to 29	0 to 29	60 to 74	75 to 84	pest or weed control at 140 g/ha [2, 9]: 75 to 84%; pest or weed control at 35 g/ha [2, 10]: 95 to 100%; pest or weed control at 70 g/ha [2, 10]: 95 to 100%; pest or weed control at 140 g/ha [2, 10]: 95 to 100%; pest or weed control at 35 g/ha [2, 11]: 0 to 29%; pest or weed control at 70 g/ha [2, 11]: 45 to 59%; pest or weed control at 140 g/ha [2, 11]: 60 to 74%; pest or weed control at 35 g/ha [2, 12]: 95 to 100%; pest or weed control at 70 g/ha [2, 12]: 95 to 100%; pest or weed control at 140 g/ha [2, 12]: 95 to 100%; pest or weed control at 35 g/ha [2, 13]: 0 to 29%; pest or weed control at 70 g/ha [2, 13]: 0 to 29%; pest or weed control at 140 g/ha [2, 13]: 0 to 29%; pest or weed control at 35 g/ha [2, 14]: 0 to 29%; pest or weed control at 70 g/ha [2, 14]: 0 to 29%; pest or weed control at 140 g/ha [2, 14]: 0 to 29%
COC(=O)c1nc(-c2ccc(F)c3c2OCO3)cc(N)c1Cl [Compound 92]	0 to 29	0 to 29	0 to 29	0 to 29	0 to 29	0 to 29	0 to 29	0 to 29	0 to 29	0 to 29	0 to 29	0 to 29	0 to 29	0 to 29	0 to 29	0 to 29	0 to 29	0 to 29	60 to 74	85 to 94	pest or weed control at 140 g/ha [2, 9]: 85 to 94%; pest or weed control at 35 g/ha [2, 10]: 95 to 100%; pest or weed control at 70 g/ha [2, 10]: 95 to 100%; pest or weed control at 140 g/ha [2, 10]: 95 to 100%; pest or weed control at 35 g/ha [2, 11]: 30 to 44%; pest or weed control at 70 g/ha [2, 11]: 60 to 74%; pest or weed control at 140 g/ha [2, 11]: 75 to 84%; pest or weed control at 35 g/ha [2, 12]: 95 to 100%; pest or weed control at 70 g/ha [2, 12]: 85 to 94%; pest or weed control at 140 g/ha [2, 12]: 95 to 100%; pest or weed control at 35 g/ha [2, 13]: 0 to 29%; pest or weed control at 70 g/ha [2, 13]: 0 to 29%; pest or weed control at 140 g/ha [2, 13]: 0 to 29%; pest or weed control at 35 g/ha [2, 14]: 60 to 74%; pest or weed control at 70 g/ha [2, 14]: 60 to 74%; pest or weed control at 140 g/ha [2, 14]: 75 to 84%
COC(=O)c1nc(-c2cccc3c2OCO3)cc(N)c1Cl [Compound 93]	0 to 29	0 to 29	0 to 29	0 to 29	0 to 29	0 to 29	0 to 29	0 to 29	0 to 29	0 to 29	0 to 29	0 to 29	0 to 29	0 to 29	0 to 29	0 to 29	0 to 29	0 to 29	0 to 29	0 to 29	pest or weed control at 140 g/ha [2, 9]: 45 to 59%; pest or weed control at 35 g/ha [2, 10]: 0 to 29%; pest or weed control at 70 g/ha [2, 10]: 0 to 29%; pest or weed control at 140 g/ha [2, 10]: 60 to 74%; pest or weed control at 35 g/ha [2, 11]: 0 to 29%; pest or weed control at 70 g/ha [2, 11]: 30 to 44%; pest or weed control at 140 g/ha [2, 11]: 60 to 74%; pest or weed control at 35 g/ha [2, 12]: 60 to 74%; pest or weed control at 70 g/ha [2, 12]: 75 to 84%; pest or weed control at 140 g/ha [2, 12]: 95 to 100%; pest or weed control at 35 g/ha [2, 13]: 0 to 29%; pest or weed control at 70 g/ha [2, 13]: 0 to 29%; pest or weed control at 140 g/ha [2, 13]: 0 to 29%; pest or weed control at 35 g/ha [2, 14]: 45 to 59%; pest or weed control at 70 g/ha [2, 14]: 60 to 74%; pest or weed control at 140 g/ha [2, 14]: 75 to 84%
